Measured values taken from publication PMC7782499, “Progerinin, an optimized progerin-lamin A binding inhibitor, ameliorates premature senescence phenotypes of Hutchinson-Gilford progeria syndrome” (Communications Biology, 2021).

Tested on: Sprague-Dawley rats
Assay: Single oral gavage dose toxicity study in SD rats
Type: in vivo
Conditions: for Mortality: Day 1-7; for External Gross Observation: No gross findings (animals of 3) / Internal Gross Observation: No gross findings (animals of 3): Sprague-Dawley, 7 day
Text: The protocol and procedures involving the care and use of animals in this study was reviewed and approved by IACUC of QuBEST BIO prior to conduct (Approval no.: QBSIACUC-A18122). During the study, the care and use of animals will be conducted in accordance with all applicable guidelines of Animal Welfare Act. Eleven specific pathogen-gree Sprague-Dawley rats (~6 weeks old) were obtained from SAMTAKO Ltd. (Osan, Korea) and nine rats were used for the study. […] Food was withheld for a further 3–4 h after dosing. Each dose was based on the most recent body weight of each animal and the dose volume was […]. The dosing day was designated as Day 1. All animals were observed twice daily for mortality and moribundity during the study. A clinical observation was performed for all animals at the time of dosing and approximately 1, 2, and 4 h post-dose on dosing day, and once daily during 7-day observation period. Observations were included, but are not limited to, changes in the skin, fur, eyes and mucous membrane; respiratory, circulatory, autonomic and central nervous system function; somatomotor activity and behavior patterns. Individual body weights were measured for all animals on the day of animal receipt, randomization, prior to dosing start (Day 1) and study period (Days 4 and 7). Those animals survived on completion of the 7-day observation period were weighed body weight prior to necropsy and CO2 inhalation anesthesia and exsanguinated from the abdominal aorta. In order to avoid autolytic change, a complete gross pathology examination of the carcass was performed as soon as possible after euthanasia of all animals. Necropsy was consisted of an external examination, including identification of all clinically recorded lesions, as well as a detailed internal examination. Toxicity studies were performed by QuBEST BIO Co., Ltd (Yongin, Korea).
The objective of this study was to investigate the potential acute toxicity or approximate lethal dose of SLC-D011 following a single oral gavage administration to the SD rats.
The study group is detailed in Text Table 1.
Text Table 1. Study Group
The following parameters were evaluated: mortality (twice daily), clinical signs (1, 2, and 4 ho urs post-dose on dosing day, and once daily during 7-day period), body weights (on Days 1, 4 and 7), and […]
Mortality and Clinical Observation […]
The oral gavage route was selected since it is the intended route of administration in humans. […]
The study groups and dose level were assigned as below after consultation with the Sponsor. […]
After overnight fasting (approximately 16 hours, food but not water should be withheld overnight), test article formulations were dosed using a plastic disposable feeding needle attached to a plastic disposable syringe. Food was withheld for a further 3~4 hours after dosing. Each dose was based on the most recent body weight of each animal and the dose volume was 10 mL/kg. The dosing day was designated as study Day 1.
All animals were observed twice daily [once (am) on weekend and holiday] for mortality and moribundity during the study.
A clinical observation was performed for all animals at the time of dosing and approximately 1, 2 and 4 hours post-dose on dosing day, and once daily during 7-day observation period.

[1] = female, rat, in vivo, 500 mg/kg

SMILES: CC1(C)Oc2cc3oc(=O)ccc3cc2C[C@@H]1OC/C=C/c1ccccc1 [SLC-D011]
- Mortality (female rats, 500 mg/kg): 0/3
- Mortality (female rats, 2,000 mg/kg): 0/3
- External Gross Observation: No gross findings (animals of 3) [1]: 3
- Internal Gross Observation: No gross findings (animals of 3) [1]: 3
- Mortality (male rats, 500 mg/kg): 0/3
- Mortality (male rats, 2,000 mg/kg): 0/3
- External Gross Observation: No gross findings (animals of 3) (male, rat, in vivo, 500 mg/kg): 3
- Internal Gross Observation: No gross findings (animals of 3) (male, rat, in vivo, 500 mg/kg): 3
- Clinical Observation (rat, in vivo, 500 mg/kg): Appears Normal
- Tolerability (single oral gavage at 500 and 2,000 mg/kg): well tolerated
- Approximate lethal dose (ALD) (single oral gavage, both sexes): > 2,000 mg/kg
